Results: patent publication US4863951A, “Pharmacologically active amino-5,6,7,8-tetrahydronaphtho [2,3-B] furan compounds” (ADIR Et Cie, priority 1987, dated 1989)
Counter-ions that a name gives are not always drawn.

Experiments:
[1] = system: apomorphine-induced rearing-up; test: Antagonism of apomorphine-induced rearing-up behavior in mice; type: in vivo; settings: apomorphine 0.75 mg.kg^-1 s.c.; for change in vivo at 2.5 mg/kg / change in vivo at 5 mg/kg / change in vivo at 10 mg/kg / change in vivo at 20 mg/kg: Mus musculus, ip; for change in vivo at 2.5 mg/kg: read-out: % inhibition of rearing-up, mice, i.p. dose 2.5 mg.kg^-1; for change in vivo at 5 mg/kg: read-out: % inhibition of rearing-up, mice, i.p. dose 5 mg.kg^-1; for change in vivo at 10 mg/kg: read-out: % inhibition of rearing-up, mice, i.p. dose 10 mg.kg^-1; for change in vivo at 20 mg/kg: read-out: % inhibition of rearing-up, mice, i.p. dose 20 mg.kg^-1; for % inhibition of rearing-up: mice, hydrochloride
Protocol: Studied in the test of antagonism of apomorphine-induced rearing-up following the subcutaneous administration of a dose of 0.75 mg.kg^-1 of this substance in mice, the compounds of general formula I act in a clear-cut manner at doses greater than or equal to 2.5 mg.kg^-1 (i.p.). The same results are observed when the compounds of general formula I are administered orally at a dose of 20 mg.kg^-1. The activity of the compounds was assessed according to the method described by Protais P, Costentin J and Schwartz J. C. in Psychopharmacology (1976), 50, p. 1-6.
(s=significant difference, p<0.05).

[2] = system: apomorphine-induced stereotypy; test: Antagonism of apomorphine-induced stereotypy in rats; type: in vivo; settings: apomorphine 1.5 mg.kg^-1 i.p., 30 minutes; for change in vivo at 10 mg/kg: read-out: % ISS (inhibition (-) or potentiation (+) of the stereotypy score), rats, i.p. dose 10 mg.kg^-1; for % ISS (inhibition (-) or potentiation (+) of the stereotypy score): rats, hydrochloride
Protocol: The inhibitory activity of the compounds of the invention with respect to apomorphine- or amphetamine-induced stereotypy in rats was assessed using the scale of scoring of stereotyped movements described by Quinton R. M. and Halliwell G. in Nature (1963), 200, p. 178-179.
Apomorphine or amphetamine was administered to the animals intraperitoneally at a dose of 1.5 mg.kg^-1. The percentage inhibition (-) or potentiation (+) of the stereotypy score (% ISS) shown in Tables IV and V for apomorphine corresponds to a measurement time of 30 minutes. In contrast, the percentage inhibition of the stereotypy score shown in Table VI for amphetamine corresponds to a measurement time of 3 hours. […]

[3] = system: apomorphine-induced hypothermia; test: Antagonism with respect to apomorphine-induced hypothermia in mice; type: in vivo; settings: apomorphine 1 mg.kg^-1 s.c., after 2 hours; for change in vivo at 2.5 mg/kg / change in vivo at 5 mg/kg / change in vivo at 10 mg/kg / change in vivo at 20 mg/kg: Mus musculus, ip, 2 h; for change in vivo at 2.5 mg/kg: read-out: % antagonism of hypothermia, mice, i.p. dose 2.5; for change in vivo at 5 mg/kg: read-out: % antagonism of hypothermia, mice, i.p. dose 5; for change in vivo at 10 mg/kg: read-out: % antagonism of hypothermia, mice, i.p. dose 10; for change in vivo at 20 mg/kg: read-out: % antagonism of hypothermia, mice, i.p. dose 20; for % antagonism of hypothermia: mice, hydrochloride
Protocol: Testing for an antagonism with respect to apomorphine-induced hypothermia in mice was performed according to the method described by CHERMAT R. and PONCELET M. in J. Pharmac. (1983), 14, No. 1, p. 93-97. The dose of apomorphine administered subcutaneously was 1 mg.kg^-1. Tables VII and VIII show the percentage antagonism of the hypothermia observed after 2 hours.

[4] = system: isolation-induced aggression; test: Antiaggressive effects: isolation-induced aggression in mice; type: in vivo; settings: isolated mice, i.p.
Excerpt: (§1) The antiaggressive effects of the compounds of the invention were investigated by two methods, one of them testing for an inhibition of aggressive behavior in peviously isolated mice (Yen C. Y., Stanger A. L., and Millman N, Arch. Int. Pharmacodyn. Therap. (1959), 123, p. 179-185), and the other in isolated and bulbectomized rats (Garattini S. and Sigg E. B. "Aggressive Behaviour" p. 47-55 Ed. Excerpta Medica Found., Amsterdam, 1969).
(§2) (Tables IX and X, s=significant, p<0.05).

[5] = system: aggression of isolated, bulbectomized rats; test: Antiaggressive effects: aggression of isolated, bulbectomized rats; type: in vivo; settings: i.p.
Excerpt: as §1, §2

[6] = system: reserpine-induced hypothermia; test: Antagonism of reserpine-induced hypothermia; type: in vivo, Swiss CD male mice; settings: mice, reserpine 2.5 mg.kg^-1 i.p.
Protocol: (§3) The antidepressant effects of the compounds of the invention were investigated by assessing the antagonism of reserpine-induced hypothermia and the antagonism of the ponto-geniculo-occipital waves induced by the compound Ro4-1284 in cats.
The study is carried out on Swiss CD male mice (27-28 g). After distribution into groups of 10 animals each, reserpine is injected intraperitoneally at a dose of 2.5 mg.kg^-1. Three hours later, the compounds undergoing trial are administered intraperitoneally. The rectal temperature of the animals is measured one hour and two hours after the second treatment, and compared with the initial temperature To of these same animals, measured immediately before the administration of the compounds undergoing trial.

[7] = system: ponto-geniculo-occipital (P.G.O.) waves induced by Ro4-1284; test: Antagonism of the ponto-geniculo-occipital (P.G.O.) waves induced by Ro4-1284; type: in vivo; settings: Felis catus, iv, cats, i.v., read-out: ED50 (effective dose inhibiting by 50% the number of P.G.O. waves)
Protocol: as §3
This study was performed according to the method of Ruch-Monachon M. A., Jalfre M. and Haefely W. described in Arch. Int. Pharm. Therap., (1976), 219, No. 2, p. 251-346, and it enabled the effective dose (i.v) inhibiting by 50% (ED50) the number of P.G.O waves to be assessed.

[8] = system: interoceptive stimulus of apomorphine; test: Drug discrimination in rats (generalization with apomorphine); type: in vivo; settings: 2.5 mg.kg^-1 i.p., 30 minutes before test, hydrochloride
Protocol: Rats were trained to discriminate between the effect of the interoceptive stimulus of apomorphine (0.2 mg.kg^-1 i.p.) and that of physiological saline, according to a principle described by Colpaert F. in "Drug discrimination application in C.N.S. Pharmacology" Ed. Elsevier Biomedical 1982, Amsterdam. […]
Under the experimental conditions employed, the behavior shown by the animals coincides with that noted in the case of administration of apomorphine.

[9] = 10 mg.kg^-1 i.p., hydrochloride
[10] = 20 mg.kg^-1 i.p., hydrochloride

SMILES: CN(C)C1CCc2cc3c(cc2C1)OCC3 (racemic) [Example 6, dl-7-(N,N-Dimethylamino)-2,3,5,6,7,8-hexahydronaphtho[2,3-b]furan hydrochloride]
- change in vivo at 2.5 mg/kg [1]: -17%
- change in vivo at 5 mg/kg [1]: -54%
- change in vivo at 10 mg/kg [1]: -94%
- change in vivo at 20 mg/kg [1]: -100%
- change in vivo at 10 mg/kg ([2]; Rattus norvegicus, ip, 0.5 h): -48%
- change in vivo at 20 mg/kg ([2]; Rattus norvegicus, ip, 0.5 h, read-out: % ISS (inhibition (-) or potentiation (+) of the stereotypy score), rats, i.p. dose 20 mg.kg^-1): -58%
- change in vivo at 2.5 mg/kg [3]: 6%
- change in vivo at 5 mg/kg [3]: -6%
- change in vivo at 10 mg/kg [3]: -25%
- change in vivo at 20 mg/kg [3]: -48%
- % of pairs of mice showing no sign of fighting ([4]; 2.5 mg.kg^-1): 40%
- % of pairs of mice showing no sign of fighting ([4]; 5 mg.kg^-1): 44%
- % of pairs of mice showing no sign of fighting ([4]; 10 mg.kg^-1): 78%
- % of rats rendered non-aggressive ([5]; 2.5 mg.kg^-1): 30%
- % inhibition of hypothermia ([6]; 2.5 mg.kg^-1 i.p.): -1%
- % inhibition of hypothermia ([6]; 5 mg.kg^-1 i.p.): +1%
- % inhibition of hypothermia ([6]; 10 mg.kg^-1 i.p.): -24%
- % inhibition of hypothermia ([6]; 20 mg.kg^-1 i.p.): -20%
- ED50 [7]: 0.498 mg/kg

SMILES: CN(C)C1CCc2cc3c(cc2C1)OCC3 (stereo not drawn) [Example 41, l-7-(N,N-Dimethylamino)-2,3,5,6,7,8-hexahydronaphtho[2,3-b]furan hydrochloride]
- % ISS (inhibition (-) or potentiation (+) of the stereotypy score) ([2]; i.p. dose 10 mg.kg^-1): +11%
- % ISS (inhibition (-) or potentiation (+) of the stereotypy score) ([2]; i.p. dose 20 mg.kg^-1): +3%
- % of pairs of mice showing no sign of fighting ([4]; 5 mg.kg^-1, hydrochloride): 66%
- % of pairs of mice showing no sign of fighting ([4]; 10 mg.kg^-1, hydrochloride): 90%
- % of rats rendered non-aggressive ([5]; 10 mg.kg^-1, hydrochloride): 50%
- % inhibition of hypothermia [6, 9]: +13%
- % inhibition of hypothermia [6, 10]: +29%

SMILES: CN(C)C1CCc2cc3c(cc2C1)OCC3 (stereo not drawn) [Example 40, d-7-(N,N-Dimethylamino)-2,3,5,6,7,8-hexahydronaphtho[2,3,-b]furan hydrochloride]
- change in vivo at 2.5 mg/kg [1]: -75%
- change in vivo at 5 mg/kg [1]: -100%
- % ISS (inhibition (-) or potentiation (+) of the stereotypy score) ([2]; i.p. dose 10 mg.kg^-1): -61%
- % ISS (inhibition (-) or potentiation (+) of the stereotypy score) ([2]; i.p. dose 20 mg.kg^-1): -67%
- change in vivo at 10 mg/kg [3]: -44%
- change in vivo at 20 mg/kg [3]: -73%
- % of pairs of mice showing no sign of fighting ([4]; 5 mg.kg^-1, hydrochloride): 22%
- % of pairs of mice showing no sign of fighting ([4]; 10 mg.kg^-1, hydrochloride): 50%
- % of rats rendered non-aggressive ([5]; 10 mg.kg^-1, hydrochloride): 42%
- % inhibition of hypothermia [6, 9]: +14%
- % inhibition of hypothermia [6, 10]: +14%

SMILES: CNC1CCc2cc3c(cc2C1)OCC3 (racemic) [Example 9, dl-7-(N-Methylamino)-2,3,5,6,7,8-hexahydronaphtho[2,3-b]furan hydrochloride]
- change in vivo at 2.5 mg/kg [1]: -46%
- change in vivo at 5 mg/kg [1]: -65%
- change in vivo at 10 mg/kg [1]: -100%
- change in vivo at 20 mg/kg [1]: -100%
- change in vivo at 2.5 mg/kg [3]: -39%
- change in vivo at 5 mg/kg [3]: -67%
- change in vivo at 10 mg/kg [3]: -86%
- change in vivo at 20 mg/kg [3]: -84%
- % of pairs of mice showing no sign of fighting ([4]; 2.5 mg.kg^-1): 67%
- % of pairs of mice showing no sign of fighting ([4]; 5 mg.kg^-1): 56%
- % of pairs of mice showing no sign of fighting ([4]; 10 mg.kg^-1): 89%
- % of rats rendered non-aggressive ([5]; 2.5 mg.kg^-1): 27%
- % of rats rendered non-aggressive ([5]; 5 mg.kg^-1): 58%
- % inhibition of hypothermia ([6]; 2.5 mg.kg^-1 i.p.): -8%
- % inhibition of hypothermia ([6]; 5 mg.kg^-1 i.p.): +37%
- % inhibition of hypothermia ([6]; 10 mg.kg^-1 i.p.): +16%
- % inhibition of hypothermia ([6]; 20 mg.kg^-1 i.p.): +11%
- ED50 [7]: 0.173 mg/kg

SMILES: CNC1CCc2cc3c(cc2C1)OCC3 (stereo not drawn) [Example 38, d-7-(N-Methylamino)-2,3,5,6,7,8-hexahydronaphtho[2,3-b]furan hydrochloride]
- change in vivo at 2.5 mg/kg [1]: -76%
- change in vivo at 5 mg/kg [1]: -100%
- change in vivo at 5 mg/kg ([2]; Rattus norvegicus, ip, 0.5 h, read-out: % ISS (inhibition (-) or potentiation (+) of the stereotypy score), rats, i.p. dose 5 mg.kg^-1): -60%
- change in vivo at 10 mg/kg ([2]; Rattus norvegicus, ip, 0.5 h): -54%
- change in vivo at 2.5 mg/kg [3]: -48%
- change in vivo at 5 mg/kg [3]: -91%
- change in vivo at 10 mg/kg [3]: -112%
- change in vivo at 20 mg/kg [3]: -119%
- % of pairs of mice showing no sign of fighting ([4]; 5 mg.kg^-1, hydrochloride): 70%
- % of rats rendered non-aggressive ([5]; 2.5 mg.kg^-1): 37%
- % of rats rendered non-aggressive ([5]; 5 mg.kg^-1, hydrochloride): 75%
- % inhibition of hypothermia ([6]; 2.5 mg.kg^-1 i.p., hydrochloride): -28%
- % inhibition of hypothermia ([6]; 5 mg.kg^-1 i.p., hydrochloride): -35%
- % inhibition of hypothermia [6, 9]: -21%

SMILES: NC1CCc2cc3c(cc2C1)OCC3 (stereo not drawn) [Example 4, l-7-Amino-2,3,5,6,7,8-hexahydronaphtho[2,3-b]furan hydrochloride]
- % inhibition of rearing-up ([1]; i.p. dose 10 mg.kg^-1): -24%
- % inhibition of rearing-up ([1]; i.p. dose 20 mg.kg^-1): -86%
- % antagonism of hypothermia ([3]; i.p. dose 2.5): -8%
- % antagonism of hypothermia ([3]; i.p. dose 5): -3%
- % antagonism of hypothermia ([3]; i.p. dose 10): -11%
- % antagonism of hypothermia ([3]; i.p. dose 20): -19%
- % of pairs of mice showing no sign of fighting ([4]; 2.5 mg.kg^-1, hydrochloride): 22%
- % of pairs of mice showing no sign of fighting ([4]; 5 mg.kg^-1, hydrochloride): 44%
- % of rats rendered non-aggressive ([5]; 2.5 mg.kg^-1, hydrochloride): 12%
- % of animals which generalize [8]: 70%
- Number of animals showing the effect of generalization with apomorphine [8]: 7/10
